For assay [1], the species on record is Homo sapiens. Nature of the assay: Covalent binding affinity to human beta2 adrenoceptor H2.64C mutant expressed in HEK293T cell membranes assessed as covalent blockage of binding site at 50 nM measured after 120 mins by [3H]CGP12177 binding based radioligand depletion assay relative to control.
Assay [2] in a line: (§1) Displacement of [3H]CGP12177 from human beta2 adrenoceptor H2.64C mutant expressed in HEK293T cell membranes.
The species entered for assay [3] is Homo sapiens. Nature of the assay: Covalent binding affinity to human beta2 adrenoceptor H2.64C mutant expressed in HEK293T cell membranes assessed as covalent blockage of binding site at 50 nM measured after 30 mins by [3H]CGP12177 binding based radioligand depletion assay relative to control.
The target of assay [4] is Beta-1 adrenergic receptor (Mus musculus, UniProt P34971). Nature of the assay: Displacement of [3H]CGP12177 from mouse beta1 adrenoceptor expressed in HEK293T cell membranes. A general note: Loss of bound radioactivity is the signal in a displacement assay; it reports binding, not function.
A short description of assay [5]: Selectivity index, ratio of Ki for displacement of [3H]CGP12177 from human beta2 adrenoceptor expressed in CHO cell membranes to Ki for displacement of [3H]CGP12177 from mouse beta1 adrenoceptor expressed in HEK293T cell membranes.
In assay [6] the target is Beta-2 adrenergic receptor (Homo sapiens, UniProt P07550). Nature of the assay: Displacement of [3H]CGP12177 from human beta2 adrenoceptor expressed in CHO cell membranes.
The species entered for assay [7] is Homo sapiens. The description is as §1.
The species named for assay [8] is Mus musculus. Nature of the assay: Covalent binding affinity to mouse beta1 adrenoceptor I2.64C mutant expressed in HEK293T cell membranes assessed as covalent blockage of binding site at 1 uM measured after 120 mins by [3H]CGP12177 binding based radioligand depletion assay relative to control.
The species entered for assay [9] is Mus musculus. Nature of the assay: (§2) Displacement of [3H]CGP12177 from mouse beta1 adrenoceptor I2.64C mutant expressed in HEK293T cell membranes.
The species entered for assay [10] is Homo sapiens. Nature of the assay: Covalent binding affinity to human beta2 adrenoceptor H2.64C mutant expressed in HEK293T cell membranes assessed as covalent blockage of binding site at 1 uM measured after 120 mins by [3H]CGP12177 binding based radioligand depletion assay relative to control.
The species named for assay [11] is Homo sapiens. Nature of the assay: Covalent binding affinity to human beta2 adrenoceptor H2.64C mutant expressed in HEK293T cell membranes assessed as covalent blockage of binding site at 5 nM measured after 30 mins by [3H]CGP12177 binding based radioligand depletion assay relative to control.
The species entered for assay [12] is Homo sapiens. Nature of the assay: Covalent binding affinity to human beta2 adrenoceptor H2.64C mutant expressed in HEK293T cell membranes assessed as covalent blockage of binding site at 5 nM measured within 15 mins by [3H]CGP12177 binding based radioligand depletion assay relative to control.
Assay [13] is filed under the species Homo sapiens. Nature of the assay: Covalent binding affinity to human beta2 adrenoceptor H2.64C mutant expressed in HEK293T cell membranes assessed as covalent blockage of binding site measured after 15 mins by [3H]CGP12177 binding based radioligand depletion assay relative to control.
For assay [14], the species on record is Homo sapiens. Nature of the assay: Covalent binding affinity to human beta2 adrenoceptor H2.64C mutant expressed in HEK293T cell membranes assessed as covalent blockage of binding site at 1 nM measured after 15 mins by [3H]CGP12177 binding based radioligand depletion assay relative to control.
The species named for assay [15] is Mus musculus. Nature of the assay: Covalent binding affinity to mouse beta1 adrenoceptor I2.64C mutant expressed in HEK293T cell membranes assessed as covalent blockage of binding site at 50 nM measured after 120 mins by [3H]CGP12177 binding based radioligand depletion assay relative to control.
For assay [16], the species on record is Homo sapiens. Nature of the assay: Covalent binding affinity to human beta2 adrenoceptor H2.64C mutant expressed in HEK293T cell membranes assessed as covalent blockage of binding site at 1 nM measured after 90 mins by [3H]CGP12177 binding based radioligand depletion assay relative to control.
Assay [17] in a line: as §2.
Assay [18] is filed under the species Homo sapiens. Nature of the assay: Covalent binding affinity to human beta2 adrenoceptor H2.64C mutant expressed in HEK293T cell membranes assessed as covalent blockage of binding site at 50 nM measured after 90 mins by [3H]CGP12177 binding based radioligand depletion assay relative to control.
For assay [19], the species on record is Homo sapiens. Nature of the assay: Covalent binding affinity to human beta2 adrenoceptor H2.64C mutant expressed in HEK293T cell membranes assessed as covalent blockage of binding site at 50 nM measured after 15 mins by [3H]CGP12177 binding based radioligand depletion assay relative to control.
The species named for assay [20] is Homo sapiens. Nature of the assay: Covalent binding affinity to human beta2 adrenoceptor H2.64C mutant expressed in HEK293T cell membranes assessed as covalent blockage of binding site at 80 nM measured after 30 mins by [3H]CGP12177 binding based radioligand depletion assay relative to control.

Some results are limits rather than exact numbers.

Broadly, the Ki is the dissociation constant of the complex between target and ligand, obtained from inhibition or displacement.

Beta-1 adrenergic receptor, sequence (P34971 whole entry): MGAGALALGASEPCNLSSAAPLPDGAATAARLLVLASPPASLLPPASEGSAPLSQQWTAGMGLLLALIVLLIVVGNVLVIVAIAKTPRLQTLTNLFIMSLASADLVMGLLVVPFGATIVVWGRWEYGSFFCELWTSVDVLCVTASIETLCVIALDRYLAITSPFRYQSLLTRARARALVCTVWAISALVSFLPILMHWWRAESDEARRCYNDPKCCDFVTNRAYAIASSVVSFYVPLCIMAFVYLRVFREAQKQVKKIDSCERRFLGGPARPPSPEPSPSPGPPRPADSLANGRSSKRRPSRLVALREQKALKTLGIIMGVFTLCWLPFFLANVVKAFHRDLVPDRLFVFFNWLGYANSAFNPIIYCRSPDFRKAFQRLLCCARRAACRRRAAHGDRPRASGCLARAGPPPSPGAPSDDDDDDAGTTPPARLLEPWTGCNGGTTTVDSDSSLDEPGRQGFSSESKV
Beta-2 adrenergic receptor, sequence (P07550 whole entry): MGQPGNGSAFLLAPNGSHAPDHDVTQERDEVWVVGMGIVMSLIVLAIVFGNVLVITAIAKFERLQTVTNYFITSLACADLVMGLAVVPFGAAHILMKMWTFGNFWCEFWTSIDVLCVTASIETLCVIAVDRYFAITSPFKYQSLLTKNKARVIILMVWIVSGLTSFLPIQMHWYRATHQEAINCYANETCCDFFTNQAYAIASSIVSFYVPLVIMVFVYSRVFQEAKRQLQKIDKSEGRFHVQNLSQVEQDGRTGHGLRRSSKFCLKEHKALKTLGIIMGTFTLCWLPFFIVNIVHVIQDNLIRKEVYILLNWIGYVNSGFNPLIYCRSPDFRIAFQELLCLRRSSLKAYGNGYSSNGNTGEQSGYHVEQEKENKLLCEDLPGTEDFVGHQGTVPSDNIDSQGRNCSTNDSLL

For `COCCc1ccc(OC[C@@H](O)CNCCc2ccc(OCCCSSCCN)c(OC)c2)cc1`, the Activity in assay [1] and in assay [3] was 100% in each case. The Ki in [2] stood at 1.5 nM; in assay [4] it was 22 nM; in assay [6], 20 nM. Moreover, the Ratio Ki in assay [5] came out at 0.91.
For the compound `COc1cc(CCNC[C@@H](O)COc2cccc3ccccc23)ccc1OCCCSSCCN`, the inhibitory constant (Ki) in assay [2] worked out at 1.2 nM; in assay [4] it was 33 nM; in assay [6], 1.1 nM. For the same compound, in [5], the Ratio Ki is 0.033.
Taken in the same sequence, the figures for `COc1cc(CCNC[C@@H](O)COc2cccc3ccccc23)ccc1OCCSSCCN` were 0.75 nM, 29 nM, 3.4 nM and 0.12.
Consider `CC(C)NCC(O)COc1ccc(COCCOC(C)C)cc1` (racemic) [BISOPROLOL], for which, in [4], the Ki was 5.3 nM.
As to `Cn1cc(C(F)(F)F)nc1-c1ccc(OC[C@@H](O)CNCCOc2ccc(OCCSSCCN)c(C(N)=O)c2)cc1`, the KiH in assay [7] stood at 36 nM; in assay [9], 0.071 nM. Moreover, the figures for the KiL in assay [7] and in assay [9] were 8.4 µM and 270 nM, respectively. Further, the Ki worked out at 49 nM in assay [4] and 2000 nM in assay [6]. Further, the Activity in assay [8] is 74%; in assay [10] it was 79%. Besides, the Ratio Ki in [5] was 41.
Regarding `COc1cc(CCNC[C@H](O)COc2cccc3ccccc23)ccc1OCCSSCCN`, the Activity in [11] was 100%; in assay [12], 77 to 92%. Further, the Ki in assay [2] came out at 0.083 nM; in assay [4], 0.49 nM; in assay [6] it was 0.16 nM. Besides, in assay [5], the Ratio Ki came out at 0.33.
As for `COc1cc(CCNC[C@H](O)c2ccc(O)c(O)c2)ccc1OCCSSCCN`, in assay [13], the Activity turned out to be 71%.
For `COc1cc(CCNC[C@H](O)COc2cccc3ccccc23)ccc1OCCCSSCCN`, the values for the Activity in assay [11] and in [12] were 100% and 77 to 92%, respectively. Also, the Ki in [2] was determined as 0.18 nM; in assay [4], 1.1 nM; in [6] it was 0.073 nM. Besides, in assay [5], the Ratio Ki is 0.066.
Take `COc1cc(CCNC[C@H](O)COc2ccc(-c3nc(C(F)(F)F)cn3C)cc2)ccc1OCCSSCCN`: the KiH is 3.6 nM in [7] and 0.56 nM in assay [9]. The KiL in [7] is 2.5 µM; in assay [9], 280 nM. Besides, the Activity was 84 to 92% in assay [14], 64 to 76% in [15] and less than 100% in assay [16]. Besides, the Ki in assay [4] came to 150 nM; in assay [6], 2200 nM. Moreover, in assay [5], the Ratio Ki came to 15.
For `COc1cc(CCNC[C@H](O)COc2ccc(COCCOC(C)C)cc2)ccc1OCCSSCCN`, the Ki in assay [2] is 0.26 nM; in assay [4], 2.6 nM; in assay [17], 2 nM; in assay [6], 51 nM. The figures for the Activity in [15], in [18] and in assay [19] were 64 to 76%, less than 100% and 84 to 92%, respectively. Besides, the Ratio Ki in [5] was found to be 20.
The compound `Cn1cc(C(F)(F)F)nc1-c1ccc(OCC(O)CNCCOc2ccc(O)c(C(N)=O)c2)cc1` (centres undefined) [CGP-20712A] yielded a Ki in assay [4] of 1.4 nM.
Regarding `COCCc1ccc(OC[C@H](O)CNCCc2ccc(OCCSSCCN)c(OC)c2)cc1`, the figures for the Ki in [2], in [4] and in assay [6] were 66 nM, 740 nM and 1300 nM, respectively. Also, the Ratio Ki in [5] came to 1.8.
`COCCc1ccc(OCC(O)CNC(C)C)cc1` (racemic) [METOPROLOL]: the Ki in assay [4] turned out to be 49 nM.
Turning to `COCCc1ccc(OC[C@H](O)CNCCc2ccc(OCCCSSCCN)c(OC)c2)cc1`, the Ki in assay [2] worked out at 26 nM; in assay [4] it was 220 nM; in assay [6], 320 nM. Besides, the Ratio Ki in [5] was 1.5.
On to `Cn1cc(C(F)(F)F)nc1-c1ccc(OC[C@@H](O)CNCCOc2ccc(OCCCSSCCN)c(C(N)=O)c2)cc1`, for which the results for the KiH in assay [7] and in assay [9] were 77 nM and 3.1 nM, respectively. For the same compound, the KiL in assay [7] stood at 3.6 µM; in [9] it was 480 nM. The Ki in assay [4] stood at 71 nM; in [6], 1400 nM. Further, the Activity in assay [8] and in assay [10] was 53 to 67% throughout. The Ratio Ki in assay [5] amounted to 20.
On to `COCCc1ccc(OC[C@@H](O)CNCCc2ccc(OCCSSCCN)c(OC)c2)cc1`, for which the Activity in [20] stood at 100%. The Ki in assay [2] was determined as 3.8 nM; in assay [4], 27 nM; in [6], 57 nM. Also, in assay [5], the Ratio Ki is 2.1.

The values above are taken from ChEMBL document CHEMBL4402511, “Development of covalent antagonists for β1- and β2-adrenergic receptors” (Bioorg Med Chem, 2019).
